Where “and” joins values, the source holds several entries; their conditions need not be identical. Identical values can stand only once.
Key:
Type in all cases: physicochemical
[1] = Aqueous solubility of solid state forms (with post-solubility pH and XRPD of excess solid); conditions: for pH of the sample post-solubility: after aqueous solubility test; for solid form of excess solid post aqueous solubility analysis (XRPD): excess solid analyzed by XRPD
[2] = Gravimetric Vapour Sorption (GVS), hygroscopicity, with post-GVS XRPD; conditions: for GVS uptake: 25° C.; for solid form post-GVS (XRPD): material analyzed post-GVS by XRPD
Method: Approximately 10-20 mg of sample was placed into a mesh vapor sorption balance pan and loaded into an IGASorp Moisture Sorption Analyser balance by Hiden Analytical. The sample was subjected to a ramping profile from 40-90% relative humidity (RH) at 10% increments, maintaining the sample at each step until a stable weight had been achieved (98% step completion, minimum step length 30 minutes, maximum step length 60 minutes) at 25° C. After completion of the sorption cycle, the sample was dried using the same procedure to 0% RH, and finally taken back to the starting point of 40% RH, using the same parameters outlined above. Two complete cycles were performed. The weight change during the sorption/desorption cycles were plotted, allowing for the hygroscopic nature of the sample to be determined.

[3] = Variable temperature XRPD (VT-XRPD): polymorphic form at each temperature
Method: VT-XRPD analysis was carried out on a Philips X'Pert Pro Multipurpose diffractometer equipped with a temperature chamber. The samples were loaded onto the VT stage and scanned between 4 and 35.99 °2θ using Cu K radiation (α1 λ=1.54060 Å; α2=1.54443 Å; β=1.39225 Å; α1:α2 ratio=0.5) running in Bragg-Brentano geometry (step size 0.008 °2θ) using 40 kV/40 mA generator settings. Measurements were performed at various temperature profiles. Any holds at specific temperatures are described in the temperature profiles for individual samples.
In another embodiment, VT-XRPD analysis of Compound A Form 11 was carried out using the heating program below in Table 11.

[4] = Stability studies: seeded slurry trials, XRPD of the solid; conditions: substance used as seed material
Method: Samples of the Compound A Form slurries and the Compound A Form 11 slurries were taken for XRPD analysis after 24 hours at 40° C., after 2 hours at 5° C. and after 24 hours at 5° C.

[5] = Carr's index (powder flowability) of micronized material; conditions: micronized to d50≤3 μm and d90≤5 μm; for Flowability: class from Carr's index
Method: A widely-used metric for how well a powder flows is Carr's index (see, for example, Wang, Y. B. and Williams, R. O. III, “Powders” in Remington: Essentials of Pharmaceutics, Felton, L., ed., London: Pharmaceutical Press, 2013 at pp. 422-423). The bulk density of a powder is measured, along with its corresponding tapped density (after allowing the powder to be compressed in a standard tap density tester, such as the Gardco JV1000, Paul N. Gardner Company, Pompano Beach, Fla., according to a standard method such as that described in Chapter 616 of the United States Pharmacopeia). Once the bulk and tapped densities of a powder have been determined experimentally, Carr's index can be calculated from the following equation: Carr's index=(tapped density−bulk density)/tapped density×100.

[6] = 25° C., final scan after cooling from the top temperature

## Cc1cc(N2CCc3cc(F)ccc3C2)cc(C)c1NC(=O)CC(C)(C)C [Compound A Form 9, N-(4-(6-fluoro-3,4-dihydroisoquinolin-2(1H)-yl)-2,6-dimethylphenyl)-3,3-dimethylbutanamide]
[1]
  aqueous solubility: < 100 µg/mL
  pH of the sample post-solubility: 7.3
  solid form of excess solid post aqueous solubility analysis (XRPD): converted to Compound A Form 4
[2]
  hygroscopicity by GVS analysis: slightly hygroscopic
  solid form post-GVS (XRPD): Compound A Form 9
[2]; at 90% RH
  GVS uptake: 0.8%
[3]; [6]
  VT-XRPD Polymorphic Form: Amorphous
[3]; 25° C., initial scan
  VT-XRPD Polymorphic Form: Form 9
[3]; 50° C.
  VT-XRPD Polymorphic Form: Form 9
[3]; 100° C.
  VT-XRPD Polymorphic Form: Form 9
[3]; 150° C.
  VT-XRPD Polymorphic Form: Form 9
[3]; 155° C.
  VT-XRPD Polymorphic Form: Form change noted-Similar to Form 9
[3]; 165° C.
  VT-XRPD Polymorphic Form: Partially crystalline
[3]; 170° C.
  VT-XRPD Polymorphic Form: Partially crystalline
[3]; 180° C.
  VT-XRPD Polymorphic Form: Amorphous

## Cc1cc(N2CCc3cc(F)ccc3C2)cc(C)c1NC(=O)CC(C)(C)C [Compound A Form 2, N-(4-(6-fluoro-3,4-dihydroisoquinolin-2(1H)-yl)-2,6-dimethylphenyl)-3,3-dimethylbutanamide]
[1]
  pH of the sample post-solubility: 6.4
  solid form of excess solid post aqueous solubility analysis (XRPD): Compound A Form 2
[1]; water, thermodynamic from solid
  solubility: < 100 µg/mL
[2]
  hygroscopicity by GVS analysis: slightly hygroscopic
  solid form post-GVS (XRPD): Compound A Form 2
[2]; between 0-90% RH
  GVS uptake: 0.37%
[3]; [6]
  VT-XRPD Polymorphic Form: Amorphous
[3]; 25° C., initial scan
  VT-XRPD Polymorphic Form: Form 2
[3]; 50° C.
  VT-XRPD Polymorphic Form: Form 2
[3]; 100° C.
  VT-XRPD Polymorphic Form: Form 2
[3]; 160° C.
  VT-XRPD Polymorphic Form: Partially crystalline
[3]; 165° C.
  VT-XRPD Polymorphic Form: Partially crystalline
[3]; 170° C.
  VT-XRPD Polymorphic Form: Amorphous
[3]; 180° C.
  VT-XRPD Polymorphic Form: Amorphous
[3]; 180° C. (post 10 minute hold)
  VT-XRPD Polymorphic Form: Amorphous

## Cc1cc(N2CCc3cc(F)ccc3C2)cc(C)c1NC(=O)CC(C)(C)C [Compound A Form 4, N-(4-(6-fluoro-3,4-dihydroisoquinolin-2(1H)-yl)-2,6-dimethylphenyl)-3,3-dimethylbutanamide]
[1]
  aqueous solubility: < 100 µg/mL
  pH of the sample post-solubility: 6.3 and 4.9
  solid form of excess solid post aqueous solubility analysis (XRPD): mixture of Compound A Form 4 and Compound A Form 11
[2]
  hygroscopicity by GVS analysis: slightly hygroscopic
  solid form post-GVS (XRPD): Compound A Form 4
[2]; at 90% RH
  GVS uptake: 0.4%
[4]; slurry in 1-Propanol
  Solid after 2 hours at 5° C. (XRPD): Form 4
  Solid after 24 hours at 5° C. (XRPD): Form 4
  Solid after 24 hours at 40° C. (XRPD): Form 2 + 4
[4]; slurry in Ethanol
  Solid after 2 hours at 5° C. (XRPD): Form 4
  Solid after 24 hours at 5° C. (XRPD): Form 4
  Solid after 24 hours at 40° C. (XRPD): Form 4
[5]
  Carr's index: 8
  Flowability: excellent
[3]; [6]
  VT-XRPD Polymorphic Form: Form 9
[3]; 25° C., initial scan
  VT-XRPD Polymorphic Form: Form 4
[3]; 50° C.
  VT-XRPD Polymorphic Form: Form 4
[3]; 60° C.
  VT-XRPD Polymorphic Form: Form 4
[3]; 70° C.
  VT-XRPD Polymorphic Form: Form 4
[3]; 80° C.
  VT-XRPD Polymorphic Form: Form 4
[3]; 95° C.
  VT-XRPD Polymorphic Form: Form 4
[3]; 100° C.
  VT-XRPD Polymorphic Form: Form 4
[3]; 110° C. (5 minute hold)
  VT-XRPD Polymorphic Form: Form 4 +
[3]; 120° C. (5 minute hold)
  VT-XRPD Polymorphic Form: Form 4 +
[3]; 130° C. (5 minute hold)
  VT-XRPD Polymorphic Form: Form 4 +
[3]; 140° C. (5 minute hold)
  VT-XRPD Polymorphic Form: Form 9

## Cc1cc(N2CCc3cc(F)ccc3C2)cc(C)c1NC(=O)CC(C)(C)C [Compound A, N-(4-(6-fluoro-3,4-dihydroisoquinolin-2(1H)-yl)-2,6-dimethylphenyl)-3,3-dimethylbutanamide]
[5]
  Carr's index: 36
  Flowability: very poor

## Cc1cc(N2CCc3cc(F)ccc3C2)cc(C)c1NC(=O)CC(C)(C)C [Compound A Form 11, N-(4-(6-fluoro-3,4-dihydroisoquinolin-2(1H)-yl)-2,6-dimethylphenyl)-3,3-dimethylbutanamide]
[2]
  hygroscopicity by GVS analysis: slightly hygroscopic
  solid form post-GVS (XRPD): mixture of Compound A Form 4 and Compound A Form 11
[2]; at 90% RH
  GVS uptake: 0.5%
[4]; slurry in 1-Propanol
  Solid after 2 hours at 5° C. (XRPD): Form 4
  Solid after 24 hours at 5° C. (XRPD): Form 4
[4]; slurry in Ethanol
  Solid after 2 hours at 5° C. (XRPD): Form 4
  Solid after 24 hours at 5° C. (XRPD): Form 4
  Solid after 24 hours at 40° C. (XRPD): Form 2
[3]; [6]
  VT-XRPD Polymorphic Form: Amorphous
[3]; 25° C., initial scan
  VT-XRPD Polymorphic Form: Form 11
[3]; 50° C.
  VT-XRPD Polymorphic Form: Form 11
[3]; 100° C.
  VT-XRPD Polymorphic Form: Form 11
[3]; 150° C.
  VT-XRPD Polymorphic Form: Form change
[3]; 155° C.
  VT-XRPD Polymorphic Form: Partially crystalline
[3]; 160° C.
  VT-XRPD Polymorphic Form: Partially crystalline
[3]; 165° C.
  VT-XRPD Polymorphic Form: Partially crystalline
[3]; 170° C.
  VT-XRPD Polymorphic Form: Partially crystalline
[3]; 180° C.
  VT-XRPD Polymorphic Form: Partially crystalline
[3]; 190° C.
  VT-XRPD Polymorphic Form: Amorphous

Source: patent publication US11091441B2, “Solid state crystalline forms of a selective potassium channel modulator” (Xenon Pharmaceuticals Inc., priority 2019, dated 2021)
